{
  "source": "ChEMBL document CHEMBL4251632",
  "about": "“Synthesis and antidepressant-like activity of novel aralkyl piperazine derivatives targeting SSRI/5-HT1A/5-HT7” (Eur J Med Chem, 2018)",
  "key": {"[1]": {"target": "T1, 5-hydroxytryptamine receptor 1A (Homo sapiens) (UniProt P08908)", "T1 sequence (whole entry)": "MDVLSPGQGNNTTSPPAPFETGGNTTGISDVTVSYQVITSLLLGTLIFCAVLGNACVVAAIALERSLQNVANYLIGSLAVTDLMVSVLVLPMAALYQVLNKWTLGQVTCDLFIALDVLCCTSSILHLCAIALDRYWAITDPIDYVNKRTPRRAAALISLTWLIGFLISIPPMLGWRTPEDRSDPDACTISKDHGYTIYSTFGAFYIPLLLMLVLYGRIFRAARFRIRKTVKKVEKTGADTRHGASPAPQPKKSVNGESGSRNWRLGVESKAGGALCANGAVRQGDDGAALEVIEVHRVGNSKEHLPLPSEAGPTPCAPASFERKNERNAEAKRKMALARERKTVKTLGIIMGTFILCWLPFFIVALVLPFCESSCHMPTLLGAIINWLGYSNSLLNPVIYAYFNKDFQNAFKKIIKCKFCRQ", "experiment": "Displacement of [3H]8-OH-DPAT from recombinant human 5-HT1A receptor expressed in HEK293 cell membranes at 10 uM after 60 mins by TopCount scintillation counting method relative to control"}, "[2]": {"experiment": "Clearance in rat liver microsomes at 1 uM in presence of NADPH by LC-MS/MS analysis", "format": "ADME, microsome", "conditions": "read-out: CLH"}, "[3]": {"test_system": "Mus musculus", "experiment": "Antidepressant-like activity in mouse assessed as reduction in immobility time at 20 mg/kg/day, po once daily for 7 days measured for last 4 mins of 6 mins test at 1 hr post last dose by forced swim test relative to control", "format": "functional", "set-up": "scale not given: the % may be the effect or the level left"}, "[4]": {"test_system": "Mus musculus", "experiment": "Antidepressant-like activity in mouse assessed as reduction in immobility time at 10 mg/kg/day, po once daily for 7 days measured for last 4 mins of 6 mins test at 1 hr post last dose by forced swim test relative to control", "format": "functional", "set-up": "scale not given: the % may be the effect or the level left"}, "[5]": {"test_system": "Mus musculus", "experiment": "Antidepressant-like activity in po dosed mouse assessed as reduction in immobility time administered once daily for 7 days measured for last 4 mins of 6 mins test at 1 hr post last dose by forced swim test", "format": "functional, organism-based"}, "[6]": {"target": "Voltage-gated inwardly rectifying potassium channel KCNH2 (Homo sapiens, UniProt Q12809)", "sequence (Q12809 whole entry)": "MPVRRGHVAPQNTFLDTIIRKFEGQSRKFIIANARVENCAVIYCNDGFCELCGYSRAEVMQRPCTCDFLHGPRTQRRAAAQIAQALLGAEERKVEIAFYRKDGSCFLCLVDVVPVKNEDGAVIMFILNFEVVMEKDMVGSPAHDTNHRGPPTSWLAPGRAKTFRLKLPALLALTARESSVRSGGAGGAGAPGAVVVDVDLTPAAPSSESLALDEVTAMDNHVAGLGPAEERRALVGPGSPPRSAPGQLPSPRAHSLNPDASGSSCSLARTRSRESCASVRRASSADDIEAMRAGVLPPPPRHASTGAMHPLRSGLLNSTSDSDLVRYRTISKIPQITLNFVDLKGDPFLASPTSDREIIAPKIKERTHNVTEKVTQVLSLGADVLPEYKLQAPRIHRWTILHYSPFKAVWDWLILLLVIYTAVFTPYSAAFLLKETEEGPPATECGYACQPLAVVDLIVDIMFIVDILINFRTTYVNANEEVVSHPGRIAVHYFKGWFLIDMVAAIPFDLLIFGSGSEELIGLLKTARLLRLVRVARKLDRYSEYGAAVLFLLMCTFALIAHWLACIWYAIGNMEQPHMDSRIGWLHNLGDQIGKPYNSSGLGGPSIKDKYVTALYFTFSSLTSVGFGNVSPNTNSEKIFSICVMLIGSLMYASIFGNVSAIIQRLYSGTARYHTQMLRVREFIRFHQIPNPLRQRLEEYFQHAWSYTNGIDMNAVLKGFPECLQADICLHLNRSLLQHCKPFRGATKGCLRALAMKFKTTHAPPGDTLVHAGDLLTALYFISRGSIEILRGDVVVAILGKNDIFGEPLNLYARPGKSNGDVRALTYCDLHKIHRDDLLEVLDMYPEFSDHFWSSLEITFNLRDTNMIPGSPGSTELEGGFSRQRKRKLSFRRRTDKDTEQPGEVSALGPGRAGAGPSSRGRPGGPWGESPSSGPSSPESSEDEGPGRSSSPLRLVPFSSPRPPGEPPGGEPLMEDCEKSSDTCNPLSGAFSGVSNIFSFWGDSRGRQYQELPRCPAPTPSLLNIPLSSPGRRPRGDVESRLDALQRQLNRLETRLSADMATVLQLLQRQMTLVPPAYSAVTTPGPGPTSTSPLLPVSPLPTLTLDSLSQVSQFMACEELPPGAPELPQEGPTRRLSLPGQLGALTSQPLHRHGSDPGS", "experiment": "Inhibition of human ERG expressed in CHO-K1 cells assessed as reduction in tail current amplitude at -80 mV holding potential after 2 mins by path clamp assay", "format": "cell-based"}, "[7]": {"test_system": "Mus musculus", "experiment": "Antidepressant-like activity in mouse assessed as reduction in immobility time at 20 mg/kg/day, po administered once daily for 7 days measured for 5 mins at 1 hr post last dose by tail suspension test relative to control", "format": "functional", "set-up": "scale not given: the % may be the effect or the level left"}, "[8]": {"test_system": "Mus musculus", "experiment": "Antidepressant-like activity in mouse assessed as reduction in immobility time at 10 mg/kg/day, po administered once daily for 7 days measured for 5 mins at 1 hr post last dose by tail suspension test relative to control", "format": "functional", "set-up": "scale not given: the % may be the effect or the level left"}, "[9]": {"target": "T2, Alpha-1A adrenergic receptor (Homo sapiens, UniProt P35348)", "T2 sequence (P35348 whole entry)": "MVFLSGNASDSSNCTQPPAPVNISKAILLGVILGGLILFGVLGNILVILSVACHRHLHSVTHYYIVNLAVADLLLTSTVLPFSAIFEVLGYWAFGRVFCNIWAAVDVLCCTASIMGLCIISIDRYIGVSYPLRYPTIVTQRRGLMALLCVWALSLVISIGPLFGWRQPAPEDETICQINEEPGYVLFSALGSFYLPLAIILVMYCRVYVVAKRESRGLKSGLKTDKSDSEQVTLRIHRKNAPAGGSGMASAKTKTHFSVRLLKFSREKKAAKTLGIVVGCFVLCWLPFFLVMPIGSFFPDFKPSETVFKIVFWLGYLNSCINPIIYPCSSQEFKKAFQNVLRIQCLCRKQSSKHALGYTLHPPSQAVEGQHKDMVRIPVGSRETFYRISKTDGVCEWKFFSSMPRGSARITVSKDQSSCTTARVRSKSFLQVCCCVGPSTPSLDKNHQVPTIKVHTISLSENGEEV", "experiment": "Displacement of [3H]prazosin from alpha1-adrenoceptor (unknown origin) in cerebral cortex membranes after 60 mins by TopCount scintillation counting method", "format": "cell membranes, Membrane"}, "[10]": {"organism": "Homo sapiens", "experiment": "Selectivity ratio of Ki for alpha1-adrenoceptor (unknown origin) in cerebral cortex membranes to Ki for recombinant human 5-HT1A receptor expressed in HEK293 cell membranes", "format": "cell-based"}, "[11]": {"experiment": "AUC (0 to infinity) in Sprague-Dawley rat at 2 mg/kg, po administered as single dose by LC-MS/MS analysis", "format": "ADME, organism-based", "set-up": "dose 2 mg/kg, time infinity, route oral", "conditions": "in vivo"}, "[12]": {"experiment": "MRT (0 to t) in Sprague-Dawley rat at 2 mg/kg, po administered as single dose by LC-MS/MS analysis", "format": "ADME, organism-based", "conditions": "in vivo"}, "[13]": {"experiment": "Oral bioavailability in Sprague-Dawley rat at 2 mg/kg administered as single dose by LC-MS/MS analysis", "format": "ADME, organism-based", "conditions": "in vivo"}, "[14]": {"experiment": "AUC (0 to infinity) in Sprague-Dawley rat at 0.5 mg/kg, iv administered as single dose by LC-MS/MS analysis", "format": "ADME, organism-based", "set-up": "dose 0.5 mg/kg, time infinity, route intravenous", "conditions": "in vivo"}, "[15]": {"test_system": "Rattus norvegicus", "experiment": "Apparent volume of distribution during terminal phase in Sprague-Dawley rat at 0.5 mg/kg, iv administered as single dose by LC-MS/MS analysis", "format": "ADME, organism-based", "conditions": "in vivo"}, "[16]": {"test_system": "Rattus norvegicus", "experiment": "Apparent clearance during terminal phase in Sprague-Dawley rat at 0.5 mg/kg, iv administered as single dose by LC-MS/MS analysis", "format": "ADME, organism-based", "conditions": "in vivo"}, "[17]": {"experiment": "Cmax in Sprague-Dawley rat at 0.5 mg/kg, iv administered as single dose by LC-MS/MS analysis", "format": "ADME, organism-based", "set-up": "dose 0.5 mg/kg, route intravenous", "conditions": "in vivo"}, "[18]": {"experiment": "Plasma concentration in Sprague-Dawley rat at 2 mg/kg, po administered as single dose measured after 2 hrs by LC-MS/MS analysis", "format": "ADME, organism-based"}, "[19]": {"experiment": "Plasma concentration in Sprague-Dawley rat at 2 mg/kg, po administered as single dose measured after 4 hrs by LC-MS/MS analysis", "format": "ADME, organism-based"}, "[20]": {"experiment": "Plasma concentration in Sprague-Dawley rat at 2 mg/kg, po administered as single dose measured after 8 hrs by LC-MS/MS analysis", "format": "ADME, organism-based"}, "[21]": {"experiment": "Plasma concentration in Sprague-Dawley rat at 2 mg/kg, po administered as single dose measured after 9 hrs by LC-MS/MS analysis", "format": "ADME, organism-based"}, "[22]": {"experiment": "Plasma concentration in Sprague-Dawley rat at 0.5 mg/kg, iv administered as single dose measured after 5 mins by LC-MS/MS analysis", "format": "ADME, organism-based"}, "[23]": {"experiment": "Plasma concentration in Sprague-Dawley rat at 0.5 mg/kg, iv administered as single dose measured after 15 mins by LC-MS/MS analysis", "format": "ADME, organism-based"}, "[24]": {"experiment": "Plasma concentration in Sprague-Dawley rat at 0.5 mg/kg, iv administered as single dose measured after 30 mins by LC-MS/MS analysis", "format": "ADME, organism-based"}, "[25]": {"experiment": "Plasma concentration in Sprague-Dawley rat at 0.5 mg/kg, iv administered as single dose measured after 1 hr by LC-MS/MS analysis", "format": "ADME, organism-based"}, "[26]": {"experiment": "Plasma concentration in Sprague-Dawley rat at 0.5 mg/kg, iv administered as single dose measured after 2 hrs by LC-MS/MS analysis", "format": "ADME, organism-based"}, "[27]": {"experiment": "Plasma concentration in Sprague-Dawley rat at 0.5 mg/kg, iv administered as single dose measured after 8 hrs by LC-MS/MS analysis", "format": "ADME, organism-based"}, "[28]": {"experiment": "in vitro", "conditions": "rat, liver microsomes", "description": "Half life in rat liver microsomes at 1 uM in presence of NADPH by LC-MS/MS analysis"}},
  "data": [
    {"molecule": "Fc1ccc(N2CCN(CCCc3c[nH]c4ccc(F)cc34)CC2)c(-c2ccccc2)c1", "values": [
      {"measurement": "inhibition", "setting": "[1]", "value": "> 90", "unit": "%"},
      {"measurement": "microsomal CLint at 1 µM", "setting": "[2]", "value": 29.8, "unit": "µL/min/mg"},
      {"measurement": "Activity", "setting": "[3]", "value": 27, "unit": "%"},
      {"measurement": "Activity", "setting": "[4]", "value": 24, "unit": "%"},
      {"measurement": "Activity", "setting": "[5]", "value": "Dose-dependent effect"},
      {"measurement": "IC50", "setting": "[6]", "value": 16.7, "unit": "µM"},
      {"measurement": "Activity", "setting": "[7]", "value": 20, "unit": "%"},
      {"measurement": "Activity", "setting": "[8]", "value": 18, "unit": "%"},
      {"measurement": "Ki", "setting": "[9]", "value": 0.028, "unit": "µM"},
      {"measurement": "Ratio Ki", "setting": "[10]", "value": 1},
      {"measurement": "AUC(0-inf)", "setting": "[11]", "value": 898, "unit": "ng·h/mL"},
      {"measurement": "MRT last", "setting": "[12]", "value": 4.3, "unit": "h"},
      {"measurement": "bioavailability", "setting": "[13]", "value": 68.5, "unit": "%"},
      {"measurement": "AUC(0-inf)", "setting": "[14]", "value": 328, "unit": "ng·h/mL"},
      {"measurement": "Vz/F", "setting": "[15]", "value": 7.4, "unit": "L/kg"},
      {"measurement": "CLz/F", "setting": "[16]", "value": 25, "unit": "mL/min/kg"},
      {"measurement": "Cmax", "setting": "[17]", "value": 342, "unit": "ng/mL"},
      {"measurement": "concentration at 2 h", "setting": "[18]", "value": 76.7, "unit": "ng/mL"},
      {"measurement": "concentration at 4 h", "setting": "[19]", "value": 60.7, "unit": "ng/mL"},
      {"measurement": "concentration at 8 h", "setting": "[20]", "value": 47.4, "unit": "ng/mL"},
      {"measurement": "concentration at 9 h", "setting": "[21]", "value": 34.9, "unit": "ng/mL"},
      {"measurement": "concentration at 5 min", "setting": "[22]", "value": 342, "unit": "ng/mL"},
      {"measurement": "concentration at […]", "setting": "[23]", "value": 149, "unit": "ng/mL"},
      {"measurement": "concentration at 0.5 h", "setting": "[24]", "value": 80.8, "unit": "ng/mL"},
      {"measurement": "concentration at 1 h", "setting": "[25]", "value": 51.3, "unit": "ng/mL"},
      {"measurement": "concentration at 2 h", "setting": "[26]", "value": 32.3, "unit": "ng/mL"},
      {"measurement": "concentration at 8 h", "setting": "[27]", "value": 8.84, "unit": "ng/mL"},
      {"measurement": "half-life at 1 µM", "setting": "[28]", "value": 0.775, "unit": "h"}
    ]}
  ]
}
